Experimental data published in patent US20170369414A1, “O-Quinone Compounds as Agents Neutralising Nitric Oxide” (Institut des Substances Végétales, priority 2015, published 2017).

Experiment: Method for evaluating the neutralization of nitric oxide (amperometric probe, real time)
Conditions: phosphate buffer pH 7.4, 25° C., between T1 and T2=T1+30 s, corrected for solvent control
Protocol: For this, the nitric oxide is prepared in a separated container by achieving reduction of sodium nitrite with ferrous sulfate and carry away with a nitrogen gas stream into another container containing the product to be tested in solution in a buffer. In this solution, is placed an amperometric probe which measures in real time the current produced by the presence of nitric oxide in solution.
Nitric oxide is prepared extemporaneously in a container A, obturated with a flexible polymeric plug through which pass an entering tubing and an exiting tubing, with an inner diameter comprised between 50 μm and 300 μm, but particularly of 100 μm (cf. FIG. 1), with a volume comprised between 10 ml and 100 ml, but particularly of 30 ml, by adding a volume comprised between 0.1 and 2 ml, but particularly of 0.5 ml of an aqueous solution of sodium nitrite (NaNO2, ref. Sigma-Aldrich 237213) at a concentration comprised between 0.10% and 2.00% but particularly of 0.70%, at a volume comprised between 5 ml and 80 ml of the following aqueous solution:
The container B in which is measured the nitric oxide is a container opaque to light, with a double jacket allowing circulation of water maintaining the temperature at 25° C., obturated with a plug through which pass the tubing stemming from the container A and an exhaust tubing (cf. FIG. 1) with a volume comprised between 10 ml and 100 ml, preferably 30 ml which receives a volume comprised between 5 ml and 80 ml, preferably 20 ml, of an aqueous solution of phosphate buffer at pH 7.4.
Once they are mixed, the solutions are stirred for the whole period of the measurement with a magnetic stirrer, in container A and in container B.
Nitrogen gas is admitted at a flow rate comprised between 20 ml/min and 120 ml/min, preferably 80 ml/min in the bottom of the container A. The nitrogen thereby carries away the nitric oxide through the exiting tubing of container A as far as into container B where it is measured with a device provided for this purpose equipped with an amperometric probe provided with a specific membrane (apparatus of ref. TBR 1025 from World Precision Instruments, probe ISO-NOP). The probe thereby delivers a variable current between 10 and 1,000 nA proportional to the concentration of nitric oxide in the tested solution, of the order of magnitude of μM. The electric current produced by the probe under the influence of nitric oxide is recorded with a suitable device.
Before any measurement, the probe is calibrated by measuring the current produced by releasing known increasing amounts of nitric oxide. It is thus checked that there exists a linear relationship between the electric current produced by the probe and the molar concentration of nitric oxide and the correspondence between this electric current and the molar concentration of nitric oxide is determined. For this, 20 ml of the following aqueous solution is placed in the container B disconnected from the container A during the calibration period:
50 μl, 100 μl, 150 μl and 200 μl of a solution of sodium nitrite (NaNO2, ref. Sigma-Aldrich 237213) are then successively added to a concentration of 360 μM.
The curve giving the correspondence between the nitric oxide concentration in the reaction medium and the electric intensity produced by the probe expressed in nA is plotted for each addition of the nitric oxide solution.
During a typical measurement, 20 ml of the ferrous sulfate solution are placed in the container A and 20 ml of phosphate buffer at pH 7.4 are placed in the container B. In the container A, nitrogen gas is admitted for 10 mins, which passes in transit towards the container B, in order to remove the dissolved oxygen present in the solutions of the containers A and B. After these 10 mins, the recording of the measurement of nitric oxide is launched.
At time T0, the sodium nitrite solution is injected into the container A through the flexible polymeric plug by means of a syringe equipped with a needle.

Compound	E, neutralization effect of nitric oxide (nitric oxide neutralized per second and per mg of product) [µM/s/mg]
O=c1cc(-c2ccc(O)c(O)c2)oc2cc(O)cc(O)c12 [Luteolin]	0.174
O=C(O)/C=C/c1ccc(O)c(O)c1 [Caffeic acid]	0.957
O=C(O)/C=C/c1ccc(O)cc1 [p-coumaric acid]	0.13
(+) catechin hydrate	0.13
O.O.O=c1c(O)c(-c2ccc(O)c(O)c2)oc2cc(O)cc(O)c12 [Quercetin, Quercetin dihydrate]	0.087
O=C(O)/C=C\C1=CC(=O)C(=O)C=C1 [caffeoyl-quinone, ortho-quinone of caffeic acid]	24.36
C[C@@H]1O[C@@H](O[C@@H]2[C@@H](O)[C@H](OCCc3ccc(O)c(O)c3)O[C@H](CO)[C@H]2OC(=O)/C=C/c2ccc(O)c(O)c2)[C@H](O)[C@H](O)[C@H]1O [Verbascoside]	0.058
O=C(/C=C/c1ccc(O)c(O)c1)O[C@H](Cc1ccc(O)c(O)c1)C(=O)O [Rosmarinic acid]	0.043
